Converted amounts (≈) assume the structure as drawn.

Data on three compounds can be found in ChEMBL document CHEMBL1145390, “Synthesis and preliminary biological characterization of new semisynthetic derivatives of ramoplanin” (J Med Chem, 2007).

In data set [1] the test system is Enterococcus faecalis. The data set can be described thus: Antibacterial activity against Enterococcus faecalis after 24 hrs by broth microdilution method. The class given is functional. As to conditions: read-out: MIC.
Data set [2] deals with Staphylococcus aureus. The data set can be described thus: Antibacterial activity against Staphylococcus aureus Smith after 24 hrs by broth microdilution method. The data set is classed as functional. As to conditions: read-out: MIC. In general terms: In broth dilution the organism is exposed to a series of concentrations in liquid medium.
Data set [3] deals with Staphylococcus aureus. The data set can be described thus: Antibacterial activity against methicillin-resistant Staphylococcus aureus clinical isolate after 24 hrs by broth microdilution method. The data set is classed as functional. The settings on record: read-out: MIC.
For data set [4], the system named is Staphylococcus aureus. The data set can be described thus: Antibacterial activity against methicillin-resistant and vancomycin-intermediate resistant Staphylococcus aureus clinical isolate after 24 hrs by broth microdilution method. The data set is classed as functional.
Data set [5] concerns Staphylococcus aureus. The data set can be described thus: Antibacterial activity against vancomycin-intermediate resistant Staphylococcus aureus clinical isolate after 24 hrs by broth microdilution method. The class given is functional.
Another data set concerns Streptococcus pyogenes. The data set can be described thus: Antibacterial activity against Streptococcus pyogenes C203 after 24 hrs by broth microdilution method. The data set is classed as functional. The settings on record: C203, 24 h.
In data set [6] the test system is Enterococcus faecalis. The data set can be described thus: Antibacterial activity against vancomycin A-resistant Enterococcus faecalis after 24 hrs by broth microdilution method. The class given is functional. The settings on record: read-out: MIC.
Data set [7] relates to Enterococcus faecium. The data set can be described thus: Antibacterial activity against Enterococcus faecium after 24 hrs by broth microdilution method. The class given is functional. As to conditions: read-out: MIC.
Data set [8] relates to Enterococcus faecium. The data set can be described thus: Antibacterial activity against vancomycin A-resistant Enterococcus faecium clinical isolate after 24 hrs by broth microdilution method. The data set is classed as functional. As to conditions: read-out: MIC.
A further data set concerns Escherichia coli. The data set can be described thus: Antibacterial activity against Escherichia coli SKF-12140 after 24 hrs by broth microdilution method. The data set is classed as functional.
Another data set deals with Candida albicans. The data set can be described thus: Antifungal activity against Candida albicans SKF-2270 after 24 hrs by broth microdilution method. The class given is functional.
Data set [9] in a line: Toxicity assessed as hemolysis in erythrocytes at 180 mg/L. The data set is classed as cell-based, Erythrocyte. The settings on record: human; for hemolysis at 180 mg/L: erythrocytes, read-out: Activity.
The nature of data set [10]: Toxicity assessed as hemolysis in erythrocytes at 90 mg/L. As to conditions: human; for hemolysis at 90 mg/L: erythrocytes, read-out: Activity. The class given is cell-based, Erythrocyte.

On to `CCc1ccc(C(=O)N[C@@H](CC(N)=O)C(=O)NC[C@@H]2C(=O)N[C@H](c3ccc(O)cc3)C(=O)N[C@H](CCCN)C(=O)N[C@H](C(C)C)C(=O)N[C@@H](c3ccc(O)cc3)C(=O)N[C@H](c3ccc(O)cc3)C(=O)N[C@@H]([C@@H](C)O)C(=O)N[C@@H](Cc3ccccc3)C(=O)N[C@H](CCCN)C(=O)N[C@@H](c3ccc(O[C@H]4O[C@H](CO)[C@@H](O)[C@H](O)[C@@H]4O[C@H]4O[C@H](CO)[C@@H](O)[C@H](O)[C@@H]4O)cc3)C(=O)N[C@H]([C@@H](C)O)C(=O)N[C@@H](c3ccc(O)cc3)C(=O)NCC(=O)N[C@@H](CC(C)C)C(=O)N[C@H](C)C(=O)N[C@@H](c3ccc(O)c(Cl)c3)C(=O)O[C@@H]2C(N)=O)cc1`, for which the MIC (commonly the smallest concentration in the dilution series that meets the test's criterion for growth inhibition) in the data set on Enterococcus faecalis [1] was 1 µg/mL (≈ 0.39 µM); in the data set with Staphylococcus aureus [2] it was 0.5 µg/mL (≈ 0.195 µM); in the data set with Staphylococcus aureus [3] it was 1 µg/mL (≈ 0.39 µM); with Staphylococcus aureus [4] (read-out: MIC), 4 µg/mL (≈ 1.56 µM); in the data set on Staphylococcus aureus [5], above 32 µg/mL; in the data set with Streptococcus pyogenes (read-out: MIC), below 0.03 µg/mL. The MIC is 1 µg/mL (≈ 0.39 µM) with Enterococcus faecalis [6]; 1 µg/mL (≈ 0.39 µM) with Enterococcus faecium [7]; 1 µg/mL (≈ 0.39 µM) with Enterococcus faecium [8]; above 32 µg/mL in the data set on Escherichia coli (read-out: MIC); above 32 µg/mL in the data set with Candida albicans (read-out: MIC). Also, the hemolysis at 180 mg/L in data set [9] amounted to 62%. In [10], the hemolysis at 90 mg/L is 36%.

`CC(C)C[C@@H]1NC(=O)CNC(=O)[C@H](c2ccc(O)cc2)NC(=O)[C@@H]([C@@H](C)O)NC(=O)[C@H](c2ccc(O[C@H]3O[C@H](CO)[C@@H](O)[C@H](O)[C@@H]3O[C@H]3O[C@H](CO)[C@@H](O)[C@H](O)[C@@H]3O)cc2)NC(=O)[C@@H](CCCN)NC(=O)[C@H](Cc2ccccc2)NC(=O)[C@H]([C@@H](C)O)NC(=O)[C@@H](c2ccc(O)cc2)NC(=O)[C@H](c2ccc(O)cc2)NC(=O)[C@@H](C(C)C)NC(=O)[C@@H](CCCN)NC(=O)[C@@H](c2ccc(O)cc2)NC(=O)[C@@H](CNC(=O)[C@H](CC(N)=O)NC(=O)c2ccc3ccccc3c2)[C@@H](C(N)=O)OC(=O)[C@H](c2ccc(O)c(Cl)c2)NC(=O)[C@@H](C)NC1=O`: the MIC is 0.125 µg/mL (≈ 0.0484 µM) in the data set with Enterococcus faecalis [1]; 0.125 µg/mL (≈ 0.0484 µM) in the data set with Staphylococcus aureus [2]; 0.25 µg/mL (≈ 0.0967 µM) in the data set on Staphylococcus aureus [3]; 2 µg/mL (≈ 0.774 µM) in the data set on Staphylococcus aureus [4] (read-out: MIC); 1 µg/mL (≈ 0.387 µM) against Staphylococcus aureus [5]; at most 0.03 µg/mL in the data set with Streptococcus pyogenes (read-out: MIC). Besides, the MIC is 0.25 µg/mL (≈ 0.0967 µM) with Enterococcus faecalis [6]; 0.25 µg/mL (≈ 0.0967 µM) in the data set on Enterococcus faecium [7]; 0.25 µg/mL (≈ 0.0967 µM) with Enterococcus faecium [8]; above 32 µg/mL with Escherichia coli (read-out: MIC); above 32 µg/mL in the data set on Candida albicans (read-out: MIC). The hemolysis at 180 mg/L in data set [9] worked out at 40%. The hemolysis at 90 mg/L in [10] came out at 8%.

As for `Cc1ccc(CC(=O)N[C@@H](CC(N)=O)C(=O)NC[C@@H]2C(=O)N[C@H](c3ccc(O)cc3)C(=O)N[C@H](CCCN)C(=O)N[C@H](C(C)C)C(=O)N[C@@H](c3ccc(O)cc3)C(=O)N[C@H](c3ccc(O)cc3)C(=O)N[C@@H]([C@@H](C)O)C(=O)N[C@@H](Cc3ccccc3)C(=O)N[C@H](CCCN)C(=O)N[C@@H](c3ccc(O[C@H]4O[C@H](CO)[C@@H](O)[C@H](O)[C@@H]4O[C@H]4O[C@H](CO)[C@@H](O)[C@H](O)[C@@H]4O)cc3)C(=O)N[C@H]([C@@H](C)O)C(=O)N[C@@H](c3ccc(O)cc3)C(=O)NCC(=O)N[C@@H](CC(C)C)C(=O)N[C@H](C)C(=O)N[C@@H](c3ccc(O)c(Cl)c3)C(=O)O[C@@H]2C(N)=O)cc1`, the MIC in the data set on Enterococcus faecalis [1] worked out at 0.002 µg/mL (≈ 0.000781 µM); in the data set with Staphylococcus aureus [2] it was 0.001 µg/mL (≈ 0.00039 µM); with Staphylococcus aureus [3], 0.002 µg/mL (≈ 0.000781 µM); against Staphylococcus aureus [4] it was 8 µg/mL (≈ 3.12 µM); in the data set with Staphylococcus aureus [5], 0.008 µg/mL (≈ 0.00312 µM); in the data set with Streptococcus pyogenes, 0.06 µg/mL (≈ 0.0234 µM). In addition, the MIC is 0.002 µg/mL (≈ 0.000781 µM) with Enterococcus faecalis [6]; 0.004 µg/mL (≈ 0.00156 µM) with Enterococcus faecium [7]; 0.002 µg/mL (≈ 0.000781 µM) in the data set on Enterococcus faecium [8]; above 32 µg/mL in the data set on Escherichia coli; above 32 µg/mL against Candida albicans. The Activity in data set [9] (erythrocyte) and in [10] (erythrocyte) was 0% in each case.
